Results on one compound are retold here after patent US20120129878A1, “TABLET” (Takeda Pharmaceutical Company Limited, priority 2009, published 2012).

This test concerns the target dipeptidyl peptidase (DPP-IV) (Homo sapiens, UniProt P27487). The experiment in a line: DPP-IV inhibitory activity (statement only). In kind it is biochemical. To be noted: metabolite of compound (A); statement without data.

Chain of dipeptidyl peptidase (DPP-IV) (P27487 whole entry, species assumed): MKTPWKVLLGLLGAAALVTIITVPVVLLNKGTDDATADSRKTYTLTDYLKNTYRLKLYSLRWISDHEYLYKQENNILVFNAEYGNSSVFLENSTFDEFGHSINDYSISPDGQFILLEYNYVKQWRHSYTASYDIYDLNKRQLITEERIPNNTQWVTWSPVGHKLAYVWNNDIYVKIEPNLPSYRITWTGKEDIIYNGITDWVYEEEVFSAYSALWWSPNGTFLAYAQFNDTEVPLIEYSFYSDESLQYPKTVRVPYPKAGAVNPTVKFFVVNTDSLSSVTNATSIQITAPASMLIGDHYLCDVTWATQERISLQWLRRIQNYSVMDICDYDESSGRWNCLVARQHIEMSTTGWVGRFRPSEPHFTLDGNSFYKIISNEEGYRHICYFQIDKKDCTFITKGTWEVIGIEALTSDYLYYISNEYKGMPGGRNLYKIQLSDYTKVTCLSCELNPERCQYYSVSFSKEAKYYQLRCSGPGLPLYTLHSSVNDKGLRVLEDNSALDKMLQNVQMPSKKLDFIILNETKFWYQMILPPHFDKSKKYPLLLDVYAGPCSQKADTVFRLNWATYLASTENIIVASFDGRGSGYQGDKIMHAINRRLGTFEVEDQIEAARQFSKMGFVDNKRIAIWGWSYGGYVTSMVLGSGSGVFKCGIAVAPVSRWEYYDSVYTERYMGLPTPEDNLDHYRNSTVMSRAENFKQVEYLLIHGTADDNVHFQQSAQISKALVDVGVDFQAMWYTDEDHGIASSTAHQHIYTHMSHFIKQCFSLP

Regarding `N#Cc1ccc(F)cc1Cn1c(N2CCC[C@@H](N)C2)cc(=O)[nH]c1=O`, the DPP-IV inhibitory activity entry is given as “has a DPP-IV inhibitory activity”.
